Test results reported in US20160199365A1, “2-Carboxamide Cycloamino Urea Derivatives in Combination with HSP90 Inhibitors for the Treatment of Proliferative Diseases” (Novartis AG, priority 2011, published 2016).
Like-named read-outs stand apart in the source and are kept apart here.

Columns and labels:
[1] = tested on: HGC-27 subcutaneous xenografts (human gastric carcinoma cells, PIK3CA mutation, PTEN null); assay: HGC-27 gastric cancer xenograft model in female athymic nude mice (Example 1); details: for T/C %: 12 days, day 23; for mean change of tumor volume: mean±SEM
Description: (§1) Experiments are performed in female Hsd:Athymic Nude-FoxN1^nu Nude mice approximately 8-12 weeks of age at treatment start.
(§2) HGC-27 cells, which are human gastric carcinoma cells with a PIK3CA mutation (c1624G>A, p.E542K) and PTEN null, are grown in MEM culture medium containing 1% non-essential amino acid with 10% heat-inactivated FCS, and are incubated at 37° C. in a 5% CO2 humidified atmosphere.
(§3) HGC-27 tumors are established in vivo by injection 5×10^6 cells in 200 μl (100 μl PBS+100 μl Matrigel) (Cat #354234, BD Bioscience, Bedford, Mass.) subcutaneous into the right flank of the animals. The efficacy experiments are started when the tumors reach an average size of approximately 230 mm^3 (day 12 post cell injection).
(§4) Compound A is formulated in 0.5% Methylcellulose (MC). 80 mg of Compound A is added to 16 ml of 0.5% MC, then stirred/vortexed and sonicated in water bath sonicator for 1 h to obtain 5 mg/ml homogeneous suspension. 0.5% MC is used to dilute the 5 mg/ml solution to 2.5 mg/ml and 1.25 mg/ml for dosing. Compound A or vehicle is administered orally at a volume of 10 ml/kg.
(§5) Tumor volumes are measured with calipers and determined according to the formula: length×diameter^2×π/6. Antitumor activity is expressed as T/C % which is determined according to the formula: (mean change of tumor volume of treated animals/mean change of tumor volume of control animals)×100. Regressions (%) are calculated according to the formula ((mean tumor volume at end of treatment-mean tumor volume at start of treatment)/mean tumor volume at start of treatment)×100. Body weights and tumor volumes are recorded twice a week.
(§6) Where applicable, data is presented as mean±SEM. For all tests, the level of significance is set at p<0.05. For tumor volumes, comparisons between treatment groups and vehicle control group are done using one-way ANOVA followed by Dunnett's test. Tumor volumes comparisons between treatment groups are done using Kruskal-Wallis one way ANOVA post-hoc Student Newman Kuels test or Dunn's test. In the first experiment, Compound A is orally administered daily to HGC-27 subcutaneous xenografts, tumor-bearing nude mice at a dose of 12.5 mg/kg, 25 mg/kg and 50 mg/kg.

[2] = tested on: NCI-N87 tumors (human gastric carcinoma cells); assay: NCI-N87 gastric cancer xenograft model, third experiment (Example 3); format: in vivo, mice; details: single agent
Description: Cells are harvested with trypsin (0.25% w/v)-EDTA (0.53 mM), are re-suspended in culture medium (with additives) and are counted with a Casy® system. Cell culture reagents are purchased from BioConcept (Allschwil, Switzerland). NCI-N87 tumors are established by injecting […] to 1×10^7 cells (in HBSS containing 50% v/v Matrigel) subcutaneously with a 23 Gauge needle. When tumors are established and reach between 180 and 210 mm^3, animals are randomized into treatment groups and the treatments are initiated. Compound A is formulated in NMP/PEG300/Solutol HS15/water (10:30:20:40% vol/vol) The compound is fully dissolved in NMP first and water is added immediately prior to administration to animals. […] All doses of AUY922 refer to the free base equivalent. AUY922 is administered iv at a volume of 10 ml/kg, twice a week. […] Pairwise comparisons are done using a one way ANOVA followed by Tukey's test. The level of significance of body weight change within a group between start and end of the treatment period is determined using a paired t-test. […] Calculations are performed using GraphPad Prism 4 for windows (GraphPad Software Inc.). In addition, an approximation of drug interactions is made using the method described by Clarke R., “Issues in experimental design and endpoint analysis in the study of experimental cytotoxic agents in vivo in breast cancer and other models”, Breast Cancer Res. Treat, 46, 255-78 (1997). This is applied to MV (Tumor volume). In the third efficacy experiment, the tumor model is set up as in the second experiment.

[3] = tested on: KYSE-70 tumors (esophageal squamous cell carcinoma cells); assay: KYSE-70 esophageal squamous cell carcinoma xenograft model (Example 4); format: in vivo, mice
Description: KYSE-70 tumors are established by injecting 7.5×10^6 KYSE-70 cells, which are esophageal squamous cell carcinoma cells, in 100 μl cell suspension, with a 23 gauge needle subcutaneously on the right flank of the mice. Ten (10) days after implantation, […]. When tumors are established and reach about 156 mm^3 (minimum 86 mm^3, maximum 218 mm^3) approximately 10 days after implantation, 48 animals are selected and randomized into 6 treatment groups (n=8). Placebo control is formulated as 10 ml/kg of 250 μl NMP, 750 μl PEG300, 500 μl Solutol HS15, and 1000 μl water for delivery once daily per oral (Placebo 1) and as 10 ml/kg of 2.5 ml Glucose for delivery intravenously twice a week (Placebo 2). Compound A is formulated in NMP/PEG300/Solutol HS15/water (10:30:20:40% vol/vol). The compound is fully dissolved in NMP first and water is added immediately prior to administration to animals. […] All doses of AUY922 refer to the free base equivalent. AUY922 is administered iv at a volume of 10 ml/kg, twice a week.

[4] = Stability of Compound A dosing formulation; format: physicochemical; details: room temperature
Description: Compound A is formulated in NMP/PEG300/Solutol HS15/water (10:30:20:40% vol/vol) The compound is fully dissolved in NMP first and water is added immediately prior to administration to animals.
Compound A is formulated in NMP/PEG300/Solutol HS15/water (10:30:20:40% vol/vol). The compound is fully dissolved in NMP first and water is added immediately prior to administration to animals.

[5] = tested on: HGC-27 subcutaneous xenografts; assay: HGC-27 gastric cancer xenograft model, treatment from day 20 for 14 days (Example 2); format: in vivo, mice
Description: The procedure described in Example 1 is followed with the following modifications: Treatments are initiated on day 20 following tumor cell implantation of 5 million HCG-27 cells, when the average tumor volume is 316 mm^3 (164-485 mm^3).

[6] = tested on: HGC-27 subcutaneous xenografts (human gastric carcinoma cells, PIK3CA mutation, PTEN null); details: mouse, in vivo, po
Description: as §1, §2, §3, §4, §5, §6

[7] = Compound A 12.5 mg/kg p.o. once daily
[8] = Compound A 25 mg/kg p.o. once daily
[9] = Compound A 50 mg/kg p.o. once daily
[10] = Group 2: 12.5 mg/kg Compound A per oral once daily
[11] = Group 3: 50 mg/kg Compound A per oral once daily

With `Cc1nc(NC(=O)N2CCC[C@H]2C(N)=O)sc1-c1ccnc(C(C)(C)C(F)(F)F)c1` [Compound A, (S)-Pyrrolidine-1,2-dicarboxylic acid 2-amide 1-({4-methyl-5-[2-(2,2,2-trifluoro-1,1-dimethyl-ethyl)-pyridin-4-yl]-thiazol-2-yl}-amide)] the T/C % [1, 7] was 39.4%, the “mean change of tumor volume” value [1, 7] was 515±85 mm^3 and the T/C % [1, 8] was 35.5%. For the same compound, the “mean change of tumor volume” value [1, 8] was 465±111 mm^3, the T/C % [1, 9] was 7.1% and the “mean change of tumor volume” value [1, 9] was 93±77 mm^3. For the same compound, the T/C ([2]; Compound A 12.5 mg/kg orally once a day) was 37.8%, the “mean change of tumor volume (mm^3±SEM)” value ([2]; Compound A 12.5 mg/kg) was 73.9±17.6 mm^3 and the regressions ([2]; Compound A 50 mg/kg orally once a day) was 6.4%. For the same compound, the “mean change of tumor volume (mm^3±SEM)” value ([2]; Compound A 50 mg/kg) was −13.3±6.7 mm^3, the “T/C [%] Day 10” value [3, 10] was 100.0% and the “T/C [%] Day 14” value [3, 10] was −7.1%. For the same compound, the “T/C [%] Day 17” value [3, 10] was 74.0%, the “T/C [%] Day 21” value [3, 10] was 40.6% and the “T/C [%] Day 24” value [3, 10] was 47.5%. For the same compound, the “T/C [%] Day 10” value [3, 11] was 100.0%, the “T/C [%] Day 14” value [3, 11] was −49.3% and the “T/C [%] Day 17” value [3, 11] was −2.7%. The “T/C [%] Day 21” value [3, 11] was −40.1%, the “T/C [%] Day 24” value [3, 11] was −10.9% and the stability of suspension ([4]; Compound A in NMP/PEG300/Solutol HS15/water (10:30:20:40% vol/vol)) was “stable for one week”. The stability of suspension ([4]; Compound A suspension in 0.5% Methylcellulose) was “stable for one week”, the T/C ([5]; Compound A 25 mg/kg q.d. p.o.) was 11% and the T/C ([5]; Compound A 50 mg/kg q.d. p.o.) was 10%. For the same compound, the body weight change ([6]; 12.5 mg/kg) was 5.3±1.4%, the body weight change ([6]; 25 mg/kg) was 2.2±1.1% and the body weight change ([6]; 50 mg/kg) was −1.1±1.6%.
